Measurements: PubChem BioAssay (NCI)
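Tested at 5 concentrations; 48 h exposure; 96-well plates; endpoints linearly interpolated, else capped at highest concentration. At the GI50, growth is halved. The concentration for full growth arrest is given as TGI.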

Tests used:
Assay in all cases: NCI anticancer screen, dose series, 48 h
[1] = tested on: U251 CNS
[2] = tested on: HT29 colon
[3] = tested on: KM12 colon
[4] = tested on: SK-MEL-28 melanoma
[5] = tested on: SF-295 CNS
[6] = tested on: NCI-H522 lung
[7] = tested on: IGROV1 ovarian
[8] = tested on: TK-10 renal
[9] = tested on: MOLT-4 leukemia
[10] = tested on: HCT-116 colon

SMILES | TGI [1] [µM] | TGI [2] [µM] | TGI [3] [µM] | TGI [4] [µM] | TGI [5] [µM] | TGI [6] [µM] | TGI [7] [µM] | TGI [8] [µM] | TGI [9] [µM] | TGI [10] [µM] | GI50 [2] [µM] | GI50 [4] [µM] | GI50 [6] [µM] | GI50 [10] [µM] | GI50 [8] [µM] | GI50 [9] [µM]
CC(C)[Si](CC1=CCCCC12C(=O)N(COCC[Si](C)(C)C)c1ccccc12)(C(C)C)C(C)C (stereo not drawn) | > 100 | > 100 | > 100 | > 100 | > 100 | > 100 | > 100 | > 100 | > 100 |  |  |  |  |  |  | 
O=c1[nH]nc(-c2ccccc2)c2[nH]c3c(c12)CCCc1ccccc1-3 | 28 | 24.3 | 23.5 |  | 57.5 | 27.1 | 25 | 86.4 | 33.8 | 28.5 |  |  |  |  |  | 
FC1(F)SC2CCCCCCCCCCC2C1(F)F (stereo not drawn) | 63.6 | 96.5 |  | 71 | > 100 | 52.7 | > 100 | > 100 | > 100 | 37.1 |  |  |  |  |  | 
CCOC(=O)C(/C=N/C(N)=S)=C(/O)c1ccccc1 | > 100 | > 100 | > 100 | > 100 | > 100 |  | > 100 | > 100 | > 100 | > 100 |  |  |  |  |  | 
CC1(C)CC(=O)C(/C=N/c2nc(-c3cccc([N+](=O)[O-])c3)cs2)=C(O)C1 | 46.4 | 30.7 | > 100 |  | > 100 | 23.7 | 44.7 | 92.5 | > 100 | 28.1 |  |  |  |  |  | 
Cc1csc(CP(=O)(OC(C)C)OC(C)C)n1 | > 100 | > 100 |  | > 100 | > 100 | > 100 | > 100 | > 100 | > 100 | > 100 |  |  |  |  |  | 
COc1cc(/C=C2\CCCC3=C2N=C2SC=NN2C3c2cc(OC)c(OC)c(OC)c2)cc(OC)c1OC (stereo not drawn) |  | 7.41 |  | 5.26 |  | 8.51 |  | 47.6 |  | 3.41 | 3.07 | 2.07 | 2.72 | 1.76 | 4.19 | 3.06
COC(=O)c1cc(OCc2cc(OCc3ccc(Br)cc3)cc(OCc3ccc(Br)cc3)c2)cc(OCc2cc(OCc3ccc(Br)cc3)cc(OCc3ccc(Br)cc3)c2)c1 | > 100 |  | > 100 | > 100 | > 100 | > 100 |  | > 100 | > 100 | > 100 |  |  |  |  |  | 
Cc1nc2c(ccc3[nH]c4ccccc4c32)s1 | 54.3 | 31.3 | 56.5 | 60.3 |  | 35 | > 100 | 78.1 | 86.2 | 37.2 |  |  |  |  |  | 
Nc1[nH]nc2c1Cc1c(n(Cc3ccc(Cl)cc3)c3ccccc13)C(=O)N2 |  | 34.9 |  | > 100 | 35.9 |  | 31.8 | 35 | 29.3 | 21.8 |  |  |  |  |  | 
Cc1ccc(S(=O)(=O)N/N=C2/C3CC4CCC2C4C3)cc1 (stereo not drawn) | > 100 | > 100 | > 100 | > 100 | > 100 | > 100 | > 100 | > 100 |  | > 100 |  |  |  |  |  | 
